# Results: US9562057B2, “(Thieno[2,3-b][1,5]benzoxazepin-4-yl)piperazin-1-yl compounds as dual activity H1 inverse agonists/5-HT2A antagonists” (Eli Lilly and Company, priority 2013, dated 2017)
# Counter-ions that a name gives are not always drawn.
# Key:
# 5-HT2A receptor = target: T1, 5-HT2A receptor (Mus musculus, UniProt P35363); assay: Inhibition of DOI induced headshake activity; assay type: in vivo; conditions: male C57BL/6J mice, 10 mg/kg PO, 3 mg/kg DOI, 60 min. pre-treatment
# T1 construct: The in vivo 5-HT2A receptor antagonist activity; from tissue; host or cells: living C57BL/6J mice
# T1 sequence (P35363 whole entry): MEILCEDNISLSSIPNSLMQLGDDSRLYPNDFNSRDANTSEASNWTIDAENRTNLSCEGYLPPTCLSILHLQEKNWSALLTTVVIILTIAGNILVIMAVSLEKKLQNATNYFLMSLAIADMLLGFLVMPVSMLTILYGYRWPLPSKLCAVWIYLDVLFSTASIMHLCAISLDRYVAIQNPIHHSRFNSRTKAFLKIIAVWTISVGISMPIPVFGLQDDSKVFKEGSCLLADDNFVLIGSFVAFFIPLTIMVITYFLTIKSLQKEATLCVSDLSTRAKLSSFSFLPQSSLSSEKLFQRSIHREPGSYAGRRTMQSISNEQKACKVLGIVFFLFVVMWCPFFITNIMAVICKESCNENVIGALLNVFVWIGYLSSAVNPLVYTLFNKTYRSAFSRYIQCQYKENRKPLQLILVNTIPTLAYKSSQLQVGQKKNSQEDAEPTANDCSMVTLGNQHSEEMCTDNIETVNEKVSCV
# Protocol: (see for example Bartoszyk G D, van Amsterdam C, Böttcher H, Seyfried C A. EMD 281014, a new selective serotonin 5-HT2A receptor antagonist. Eur J Pharmacol. 2003 473: 229-230.) Briefly, male C57BL/6J mice (20-25 g, Charles River) are housed in standard housing conditions ([…], 07.00 to 19.00 light phase, constant temperature (19-23° C.) and humidity (50%+/−10), ad lib food and water). Mice received either vehicle (0.25% Methyl cellulose), DOI (3 mg/kg in saline) or test compound at 10 mg/kg PO plus DOI (3 mg/kg in saline). Test compounds are individually evaluated in groups of four per experiment with n=4 for each compound, together with vehicle and DOI+vehicle (n=8). After a test compound pre-treatment time of 60 min. the mice receive either vehicle (saline) or 3 mg/kg DOI dosed subcutaneously, and are then placed into clear perspex observation chambers. […] The data is analyzed using an ANOVA and post-hoc Dunnet's Test. The compound of example 2 is tested essentially as described and is found to inhibit the DOI induced headshake response produced by 3 mg/kg DOI by 100% at 10 mg/kg.
# male Wistar rats = assay: Sleep and behavioral monitoring in rats (EEG, EMG, motion); assay type: in vivo; conditions: for Rebound Insomnia Adj. Mean: NREM+REM sleep in 7th-9th hours post-treatment; for Rebound Insomnia Adj. Mean / Cumulative Total sleep Adj. Mean / REM inhibition Adj. Mean / Cumulative NREM sleep Adj. Mean / Locomotor Activity Intensity Adj. Mean: adjusted difference from vehicle; for Cumulative Total sleep Adj. Mean: NREM+REM; for Cumulative Total sleep Adj. Mean / Average Sleep Bout Adj. Mean / Longest Sleep Bout Adj. Mean / Cumulative NREM sleep Adj. Mean / Locomotor Activity Intensity Adj. Mean: first 6 hr. post-treatment; for REM inhibition Adj. Mean: cumulative REM sleep, first 12 hr. post-treatment
# Protocol: The compound of the present invention is tested in rats for its ability to increase the amount of sleep or decrease sleep interruption or both without undesired effects such as inhibition of REM sleep, waking motor impairment, and/or rebound insomnia. Test animals are continuously monitored by electro-encephalograms (EEG), electromyograms (EMG), and motion to measure cumulative nonREM sleep, cumulative total sleep, average sleep bout duration, longest sleep bout duration, rebound insomnia, REM sleep inhibition and locomotor activity intensity during wakefulness. Methods for such studies are known in the art (see for example methods described in Edgar D M, Seidel W F. Modafinil induces wakefulness without intensifying motor activity or subsequent rebound hypersomnolence in the rat. J Pharmacology & Experimental Therapeutics 1997; 283: 757-769; van Gelder R N, Edgar D M, Dement W C. Real-time automated sleep scoring: validation of a microcomputer-based system for mice. Sleep 1991, 14: 48-55; and Gross B A, Walsh C M, Turakhia A A, Booth V, Mashour G A, Poe G R. Open-source logic-based automated sleep scoring software using electrophysiological recordings in rats. J Neurosci Methods. 2009; 184(1):10-8.) Studies are conducted as follows:
# Adult, male Wistar rats (approximately 270-300 g at time of surgery) are surgically fitted for chronic recording of EEG, EMG, and motion as follows: Rats are surgically prepared with a cranial implant consisting of four stainless steel screws for EEG recording (two frontal [3.9 mm anterior from bregma, and ±2.0 mm mediolaterally] and two occipital [6.4 mm posterior from bregma, ±5.5 mm mediolaterally]), and with two Teflon-coated stainless steel wires for EMG recording (positioned under the nuchal trapezoid muscles). All leads are soldered to a miniature connector (Microtech, Boothwyn, Pa.) prior to surgery. The implant assembly is affixed to the skull by the combination of the stainless steel EEG recording screws, cyanoacrylate applied between the implant connector and skull, and dental acrylic. Locomotor activity is monitored via a miniature transmitter (Minimitter PDT4000G, Philips Respironics, Bend, Oreg.) surgically placed into the abdomen. At least 3 weeks are allowed for recovery.
# Each rat is housed individually within a microisolator cage modified with an inserted polycarbonate filter-top riser to allow more vertical headroom. A flexible cable that minimally restricts movement is connected at one end to a commutator afixed to the cage top and at the other end to the animal's cranial implant. Each cage is located within separate, ventilated compartments of a stainless steel sleep-wake recording chamber. Food and water are available ad libitum and the ambient temperature is maintained at about 23±1° C. A 24-hr light-dark cycle (LD 12:12) using fluorescent light is maintained throughout the study. Relative humidity averages approximately 50%. Animals are undisturbed for at least 30 his before and after each treatment.
# The vehicle (placebo, methylcellulose 15 centipoise 0.25% in water) or one of the test compound dose levels is administered orally at 1 mL/kg pseudo-randomly such that no rat receives the same treatment twice, and no rat receives more than two of the 8 treatments in any one study. Each rat is removed from its cage for about a minute to be weighed and treated. At least 6 days “washout” period precede and follow each treatment. […]
# [1] = threshold efficacy dose, 6 hr. after treatment, 4 parameter logistic regression, freebase
# [2] = within 10 times the most conservative efficacy dose (0.78 mg/kg)
smiles,measurement,setting,value
"Cc1ccc2c(c1)Oc1sc(C3CC3)cc1C(N1CCN(CC(C)(C)C(=O)O)CC1)=N2 [Example 2, 3-[4-(2-Cyclopropyl-8-methyl-thieno[2,3-b][1,5]benzoxazepin-4-yl)piperazin-1-yl]-2,2-dimethyl-propanoic acid dihydrochloride]",inhibition of DOI induced headshake response,5-HT2A receptor,100%
same,Rebound Insomnia Adj. Mean,male Wistar rats; 0.025 mg/kg PO,0.40 min
same,Cumulative Total sleep Adj. Mean,male Wistar rats; 0.025 mg/kg PO,3.6 min
same,REM inhibition Adj. Mean,male Wistar rats; 0.025 mg/kg PO,5.0 min
same,Average Sleep Bout Adj. Mean,male Wistar rats; 0.025 mg/kg PO,1.08 n-fold increase over vehicle controls
same,Longest Sleep Bout Adj. Mean,male Wistar rats; 0.025 mg/kg PO,1.26 n-fold increase over vehicle controls
same,Cumulative NREM sleep Adj. Mean,male Wistar rats; 0.025 mg/kg PO,-2.3 min
same,Locomotor Activity Intensity Adj. Mean,male Wistar rats; 0.025 mg/kg PO,−1.40 LMA counts per minute of EEG-defined wakefulness
same,Rebound Insomnia Adj. Mean,male Wistar rats; 0.1 mg/kg PO,-0.027 min
same,Cumulative Total sleep Adj. Mean,male Wistar rats; 0.1 mg/kg PO,16.9 min
same,REM inhibition Adj. Mean,male Wistar rats; 0.1 mg/kg PO,-0.71 min
same,Average Sleep Bout Adj. Mean,male Wistar rats; 0.1 mg/kg PO,1.19 n-fold increase over vehicle controls
same,Longest Sleep Bout Adj. Mean,male Wistar rats; 0.1 mg/kg PO,1.07 n-fold increase over vehicle controls
same,Cumulative NREM sleep Adj. Mean,male Wistar rats; 0.1 mg/kg PO,15.4 min
same,Locomotor Activity Intensity Adj. Mean,male Wistar rats; 0.1 mg/kg PO,0.41 LMA counts per minute of EEG-defined wakefulness
same,Rebound Insomnia Adj. Mean,male Wistar rats; 0.25 mg/kg PO,2.2 min
same,Cumulative Total sleep Adj. Mean,male Wistar rats; 0.25 mg/kg PO,23.0 min
same,REM inhibition Adj. Mean,male Wistar rats; 0.25 mg/kg PO,2.8 min
same,Average Sleep Bout Adj. Mean,male Wistar rats; 0.25 mg/kg PO,1.34 n-fold increase over vehicle controls
same,Longest Sleep Bout Adj. Mean,male Wistar rats; 0.25 mg/kg PO,1.55 n-fold increase over vehicle controls
same,Cumulative NREM sleep Adj. Mean,male Wistar rats; 0.25 mg/kg PO,19.1 min
same,Locomotor Activity Intensity Adj. Mean,male Wistar rats; 0.25 mg/kg PO,−0.31 LMA counts per minute of EEG-defined wakefulness
same,Rebound Insomnia Adj. Mean,male Wistar rats; 0.5 mg/kg PO,-5.0 min
same,Cumulative Total sleep Adj. Mean,male Wistar rats; 0.5 mg/kg PO,32.6 min
same,REM inhibition Adj. Mean,male Wistar rats; 0.5 mg/kg PO,2.3 min
same,Average Sleep Bout Adj. Mean,male Wistar rats; 0.5 mg/kg PO,1.59 n-fold increase over vehicle controls
same,Longest Sleep Bout Adj. Mean,male Wistar rats; 0.5 mg/kg PO,1.81 n-fold increase over vehicle controls
same,Cumulative NREM sleep Adj. Mean,male Wistar rats; 0.5 mg/kg PO,30.6 min
same,Locomotor Activity Intensity Adj. Mean,male Wistar rats; 0.5 mg/kg PO,−1.30 LMA counts per minute of EEG-defined wakefulness
same,Rebound Insomnia Adj. Mean,male Wistar rats; 1 mg/kg PO,-0.6 min
same,Cumulative Total sleep Adj. Mean,male Wistar rats; 1 mg/kg PO,33.2 min
same,REM inhibition Adj. Mean,male Wistar rats; 1 mg/kg PO,1.2 min
same,Average Sleep Bout Adj. Mean,male Wistar rats; 1 mg/kg PO,1.60 n-fold increase over vehicle controls
same,Longest Sleep Bout Adj. Mean,male Wistar rats; 1 mg/kg PO,2.16 n-fold increase over vehicle controls
same,Cumulative NREM sleep Adj. Mean,male Wistar rats; 1 mg/kg PO,31.0 min
same,Locomotor Activity Intensity Adj. Mean,male Wistar rats; 1 mg/kg PO,−2.33 LMA counts per minute of EEG-defined wakefulness
same,Rebound Insomnia Adj. Mean,male Wistar rats; 3 mg/kg PO,1.6 min
same,Cumulative Total sleep Adj. Mean,male Wistar rats; 3 mg/kg PO,31.6 min
same,REM inhibition Adj. Mean,male Wistar rats; 3 mg/kg PO,0.042 min
same,Average Sleep Bout Adj. Mean,male Wistar rats; 3 mg/kg PO,1.92 n-fold increase over vehicle controls
same,Longest Sleep Bout Adj. Mean,male Wistar rats; 3 mg/kg PO,2.16 n-fold increase over vehicle controls
same,Cumulative NREM sleep Adj. Mean,male Wistar rats; 3 mg/kg PO,30.1 min
same,Locomotor Activity Intensity Adj. Mean,male Wistar rats; 3 mg/kg PO,0.01 LMA counts per minute of EEG-defined wakefulness
same,Rebound Insomnia Adj. Mean,male Wistar rats; 10 mg/kg PO,3.3 min
same,Cumulative Total sleep Adj. Mean,male Wistar rats; 10 mg/kg PO,26.3 min
same,REM inhibition Adj. Mean,male Wistar rats; 10 mg/kg PO,-7.3 min
same,Average Sleep Bout Adj. Mean,male Wistar rats; 10 mg/kg PO,1.56 n-fold increase over vehicle controls
same,Longest Sleep Bout Adj. Mean,male Wistar rats; 10 mg/kg PO,2.12 n-fold increase over vehicle controls
same,Cumulative NREM sleep Adj. Mean,male Wistar rats; 10 mg/kg PO,26.9 min
same,Locomotor Activity Intensity Adj. Mean,male Wistar rats; 10 mg/kg PO,−0.89 LMA counts per minute of EEG-defined wakefulness
same,REM sleep inhibition (in words),male Wistar rats; at 3 mg/kg,without significant
same,cumulative NREM sleep time (in words),male Wistar rats; at 3 mg/kg,significantly increase
same,cumulative total sleep time (in words),male Wistar rats; at 3 mg/kg,significantly increase
same,inhibition of locomotor intensity (LMI) (in words),male Wistar rats; at 3 mg/kg,without significant
same,rebound insomnia (in words),male Wistar rats; at 3 mg/kg,without significant
same,REM sleep inhibition versus threshold value,"male Wistar rats; at 10 mg/kg, threshold −10 min. cumulative REM sleep (lower confidence limit)",exceeds the threshold value
same,"change in awake time following treatment (dose response curve, FIG. 2)",male Wistar rats; dose response,does not result in rebound insomnia
same,"change in cumulative REM sleep time (dose response curve, FIG. 1)",male Wistar rats; dose response,does not inhibit REM sleep
same,"change in distances moved during periods of wakefulness (dose response curve, FIG. 3)",male Wistar rats; dose response,does not inhibit or stimulate normal activity
same,"Estimated efficacy dose (mg/kg), NREM accumulation = 30 min.",male Wistar rats; [1],0.78 mg/kg
same,"Estimated efficacy dose (mg/kg), average sleep bout (1.5-fold increase)",male Wistar rats; [1],0.33 mg/kg
same,"Estimated efficacy dose (mg/kg), longest sleep bout (1.75-fold increase)",male Wistar rats; [1],0.33 mg/kg
same,"Estimated efficacy dose (mg/kg), total sleep accumulation = 25 min.",male Wistar rats; [1],0.19 mg/kg
same,undesired occurrences of REM inhibition,male Wistar rats; [2],no undesired occurrences
same,undesired occurrences of rebound insomnia,male Wistar rats; [2],no undesired occurrences
same,undesired occurrences of reduction in LMI,male Wistar rats; [2],no undesired occurrences
